# Experimental data from patent US4068074A, “Cephalosporin derivatives having at the 3-position of the cephem ring a heterocyclic thiomethyl group with a carboxy or sulfo group and at the 7-position of the cephem ring an α-heterocylic acylaminophenyl-acetamide group” (priority 1974, dated 1978).
# Where two headings read alike, the source gives them in different places.
# Key:
# Type in all cases: cell-based
# [1] = system: Proteus vulgaris 0X 19US; assay: MIC against bacteria (Table I), strain (2); details: 0X19US
# Source text: (§1) Now, for illustrating the excellent pharmacological effects of the compounds of this invention, the values of MIC (γ/ml.) of the compounds against various bacteria are shown in Table 1, in which the compounds of this invention used are shown by example numbers.
# (2) Proteus vulgaris 0X 19US
# [2] = system: Micrococcus flavus ATCC 10240; assay: MIC against bacteria (Table I), strain (15); details: ATCC10240
# Source text: as §1
# (15) Micrococcus flavus ATCC 10240
# [3] = system: Shigella sonnei II 37148; assay: MIC against bacteria (Table I), strain (12); details: II37148
# Source text: as §1
# [4] = system: Pseudomonas aeruginosa ATCC 8689; assay: MIC against bacteria (Table I), strain (4); details: ATCC8689; (4) Pseudomonas aeruginosa ATCC 8689; read-out: MIC
# Source text: as §1
# (4) Pseudomonas aeruginosa ATCC 8689
# [5] = system: Staphylococcus Shimanishi; assay: MIC against bacteria (Table I), strain (17)
# Source text: as §1
# (17) Staphylococcus Shimanishi
# [6] = system: Bacillus megatherium 10778; assay: MIC against bacteria (Table I), strain (13)
# Source text: as §1
# [7] = system: Escherichia coli kauffmann 0-1; assay: MIC against bacteria (Table I), strain (7)
# Source text: as §1
# (7) Escherichia coli kauffmann 0-1
# [8] = system: Salmonella typhi H901 W; assay: MIC against bacteria (Table I), strain (9); details: Salmonella enterica, TYPHI
# Source text: as §1
# (9) Salmonella typhi H901 W
# [9] = system: Bacillus subtilis ATCC 6633; assay: MIC against bacteria (Table I), strain (14); details: ATCC6633
# Source text: as §1
# (14) Bacillus subtilis ATCC 6633
# [10] = system: Salmonella enteritidis; assay: MIC against bacteria (Table I), strain (10); details: Salmonella enterica
# Source text: as §1
# (10) Salmonella enteritidis
# [11] = system: Shigella flexneri 2a 1675; assay: MIC against bacteria (Table I), strain (11); details: 2A1675
# Source text: as §1
# [12] = system: Proteus vulgaris OXK US; assay: MIC against bacteria (Table I), strain (1)
# Source text: as §1
# (1) Proteus vulgaris OXK US
# [13] = system: Klebsiella pneumoniae ATCC 10031; assay: MIC against bacteria (Table I), strain (8); details: ATCC10031
# Source text: as §1
# (8) Klebsiella pneumoniae ATCC 10031
# [14] = system: Staphylococcus aureus 209P; assay: MIC against bacteria (Table I), strain (16)
# Source text: as §1
# (16) Staphylococcus aureus 209P
# [15] = system: Staphylococcus Onuma; assay: MIC against bacteria (Table I), strain (18)
# Source text: as §1
# (18) Staphylococcus Onuma
# [16] = system: Pseudomonas aeruginosa 99 (Gentamycin resistant); assay: MIC against bacteria (Table I), strain (5)
# Source text: as §1
# (5) Pseudomonas aeruginosa 99 (Gentamycin resistant)
# [17] = system: Psuedomonas ovalis IMA 1002; assay: MIC against bacteria (Table I), strain (6)
# Source text: as §1
# (6) Psuedomonas ovalis IMA 1002
# [18] = system: Proteus mirabilis IXM OM-19; assay: MIC against bacteria (Table I), strain (3); details: IXMOM19; (3) Proteus mirabilis IXM OM-19; read-out: MIC
# Source text: as §1
# (3) Proteus mirabilis IXM OM-19
# [19] = (12) Shigella sonnei II 37148, read-out: MIC
# [20] = (11) Shigella flexneri 2a 1675, read-out: MIC
# [21] = (8) Klebsiella pneumoniae ATCC 10031, read-out: MIC
# [22] = (2) Proteus vulgaris 0X 19US, read-out: MIC
# [23] = (15) Micrococcus flavus ATCC 10240, read-out: MIC
# [24] = (6) Psuedomonas ovalis IMA 1002, read-out: MIC
# [25] = (17) Staphylococcus Shimanishi, read-out: MIC
# [26] = (13) Bacillus megatherium 10778, read-out: MIC
# [27] = (14) Bacillus subtilis ATCC 6633, read-out: MIC
# [28] = (10) Salmonella enteritidis, read-out: MIC
# [29] = (1) Proteus vulgaris OXK US, read-out: MIC
# [30] = (16) Staphylococcus aureus 209P, read-out: MIC
# [31] = (18) Staphylococcus Onuma, read-out: MIC
# [32] = (5) Pseudomonas aeruginosa 99 (Gentamycin resistant), read-out: MIC
smiles,measurement,setting,value
"CC1=C(C(=O)O)N2C(=O)[C@@H](NC(=O)[C@H](N)c3ccccc3)[C@H]2SC1 [Cephalexin, reference compound]",MIC,[1]; Proteus vulgaris,30 µg/mL
same,MIC,[2]; Micrococcus flavus,1.56 µg/mL
same,MIC,[3]; [19],6.25 µg/mL
same,MIC,[4],> 100 µg/mL
same,MIC,[5]; Staphylococcus,6.25 µg/mL
same,MIC,"[6]; Bacillus, 10778",0.78 µg/mL
same,MIC,[7]; Escherichia coli,10 µg/mL
same,MIC,[8],6.25 µg/mL
same,MIC,[9]; Bacillus subtilis,0.78 µg/mL
same,MIC,[10]; ENTERITIDIS,6.25 µg/mL
same,MIC,[11]; [20],6.25 µg/mL
same,MIC,[12]; Proteus vulgaris,30 µg/mL
same,MIC,[13]; [21],3 µg/mL
same,MIC,"[14]; Staphylococcus aureus, 209P",1.56 µg/mL
same,MIC,[15]; Staphylococcus,12.5 µg/mL
"CC(=O)OCC1=C(C(=O)O)N2C(=O)[C@@H](NC(=O)[C@H](N)c3ccccc3)[C@H]2SC1 [Cephaloglycin, reference compound]",MIC,[16]; Pseudomonas aeruginosa,> 100 µg/mL
same,MIC,[1]; [22],100 µg/mL
same,MIC,[2]; [23],0.3 µg/mL
same,MIC,[3]; [19],10 µg/mL
same,MIC,[17]; [24],> 100 µg/mL
same,MIC,[4],> 100 µg/mL
same,MIC,[5]; [25],3 µg/mL
same,MIC,[6]; [26],1 µg/mL
same,MIC,[7]; Escherichia coli,100 µg/mL
same,MIC,[8],3 µg/mL
same,MIC,[18],100 µg/mL
same,MIC,[9]; [27],0.3 µg/mL
same,MIC,[10]; [28],3 µg/mL
same,MIC,[11]; [20],3 µg/mL
same,MIC,[12]; [29],25 µg/mL
same,MIC,[13]; [21],25 µg/mL
same,MIC,[14]; [30],1 µg/mL
same,MIC,[15]; [31],3 µg/mL
"O=C(O)CCC(=O)Nc1nnc(SCC2=C(C(=O)O)N3C(=O)[C@@H](NC(=O)[C@H](NC(=O)c4csccc4=O)c4ccccc4)[C@H]3SC2)s1 [Example 1, 7-[D-α-(4-oxo-4H-thiopyran-3-ylcarboxamido)-α-phenylacetamido]-3-[5-(3-carboxypropionylamino)-1,3,4-thiadiazol-2-yl]thiomethyl-Δ^3-cephem-4-carboxylic acid]",MIC,[16]; [32],50 µg/mL
same,MIC,[1]; [22],0.19 µg/mL
same,MIC,[2]; [23],3.13 µg/mL
same,MIC,[3]; [19],25 µg/mL
same,MIC,[17]; [24],25 µg/mL
same,MIC,[4],25 µg/mL
same,MIC,[5]; [25],3.13 µg/mL
same,MIC,[6]; [26],0.78 µg/mL
same,MIC,"[7]; (7) Escherichia coli kauffmann 0-1, read-out: MIC",25 µg/mL
same,MIC,[8],1.56 µg/mL
same,MIC,[18],0.78 µg/mL
same,MIC,[9]; [27],0.39 µg/mL
same,MIC,[10]; [28],0.78 µg/mL
same,MIC,[11]; [20],6.25 µg/mL
same,MIC,[12]; [29],0.19 µg/mL
same,MIC,[13]; Klebsiella pneumoniae,6.25 µg/mL
same,MIC,[14]; [30],0.78 µg/mL
same,MIC,[15]; Staphylococcus,6.25 µg/mL
"O=C(O)CCSc1nnc(SCC2=C(C(=O)O)N3C(=O)[C@@H](NC(=O)[C@H](NC(=O)c4cnccc4O)c4ccccc4)[C@H]3SC2)s1 [Example 5, 7-[D-α-(4-hydroxynicotinoylamido)-α-phenylacetamido]-3-(5-carboxyethylthio-1,3,4-thiadiazol-2-yl)-thiomethyl-Δ^3-cephem-4-carboxylic acid]",MIC,[16]; Pseudomonas aeruginosa,6.25 µg/mL
same,MIC,[1]; [22],0.19 µg/mL
same,MIC,[2]; [23],3.13 µg/mL
same,MIC,[3]; [19],6.25 µg/mL
same,MIC,[17],6.25 µg/mL
same,MIC,[4],12.5 µg/mL
same,MIC,[5]; Staphylococcus,6.25 µg/mL
same,MIC,[6]; [26],0.78 µg/mL
same,MIC,[7]; Escherichia coli,6.25 µg/mL
same,MIC,[8],1.56 µg/mL
same,MIC,[18],0.78 µg/mL
same,MIC,[9]; [27],0.39 µg/mL
same,MIC,[10]; [28],0.39 µg/mL
same,MIC,[11]; [20],1.56 µg/mL
same,MIC,[12]; [29],< 0.09 µg/mL
same,MIC,[13]; Klebsiella pneumoniae,6.25 µg/mL
same,MIC,"[14]; Staphylococcus aureus, 209P",1.56 µg/mL
same,MIC,[15]; Staphylococcus,6.25 µg/mL
O=C(O)CSc1nnc(SCC2=C(C(=O)O)N3C(=O)[C@@H](NC(=O)[C@H](NC(=O)c4csccc4=O)c4ccccc4)[C@H]3SC2)s1 [Example 10],MIC,[16]; [32],50 µg/mL
same,MIC,[1]; [22],< 0.09 µg/mL
same,MIC,[2]; [23],3.13 µg/mL
same,MIC,[3]; Shigella sonnei,6.25 µg/mL
same,MIC,[17]; [24],50 µg/mL
same,MIC,[4],25 µg/mL
same,MIC,[5]; [25],3.13 µg/mL
same,MIC,[6]; [26],0.39 µg/mL
same,MIC,[7]; Escherichia coli,6.25 µg/mL
same,MIC,[8],1.56 µg/mL
same,MIC,[18],0.39 µg/mL
same,MIC,[9]; [27],0.19 µg/mL
same,MIC,[10]; [28],0.19 µg/mL
same,MIC,[11]; Shigella flexneri,1.56 µg/mL
same,MIC,[12]; [29],< 0.09 µg/mL
same,MIC,[13]; [21],3.13 µg/mL
same,MIC,[14]; [30],0.39 µg/mL
same,MIC,[15]; [31],3.13 µg/mL
